Consider two compounds from US5480905A, “Benzodioxane derivatives” (Chugai Seiyaku Kabushiki Kaisha, priority 1991, dated 1996).

This assay addresses T1, serotonin 1A receptor (Rattus norvegicus, UniProt P19327).
T1 construct: the cortex and hippocampal tissue were extracted from the brain; from tissue; host or cells: brain cortex and hippocampus of 7-week-old male S.D. rats, washed membrane homogenate
T1 sequence (P19327 1-422): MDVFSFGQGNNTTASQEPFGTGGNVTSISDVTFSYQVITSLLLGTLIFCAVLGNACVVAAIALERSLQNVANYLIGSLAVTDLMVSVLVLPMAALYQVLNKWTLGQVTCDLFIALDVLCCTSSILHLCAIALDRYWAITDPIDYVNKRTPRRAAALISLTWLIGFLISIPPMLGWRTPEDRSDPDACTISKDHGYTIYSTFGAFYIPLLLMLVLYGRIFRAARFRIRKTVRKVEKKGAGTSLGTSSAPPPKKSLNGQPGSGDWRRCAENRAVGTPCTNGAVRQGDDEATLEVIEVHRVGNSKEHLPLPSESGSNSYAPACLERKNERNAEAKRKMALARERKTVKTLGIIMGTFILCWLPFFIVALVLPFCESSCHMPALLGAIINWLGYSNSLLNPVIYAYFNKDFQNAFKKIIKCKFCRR
Kind of assay: Serotonin 1A receptor binding experiment (3H-8-OH-DPAT). To be noted: rat cortex and hippocampal tissue; 0.5 nM 3H-8-OH-DPAT; IC50 in M; read-out: -logIC50 5-HT1A (converted).

With `Cc1cccc2c1OC(CNCCNC(=O)C13CC4CC(CC(C4)C1)C3)CO2` (centres unmarked) [Compound 1, N-{[2-(8-methyl-1,4-benzodioxan-2-ylmethyl)amino]ethyl}tricyclo[3,3,1,1^3, ^7]decane-1-carboxyamide], the IC50 was 1.17 nM.

Regarding `O=C(NCCN1CCN(c2ncccn2)CC1)C12CC3CC(CC(C3)C1)C2` [WY-50324, reference compound], the IC50 was 1.26 nM.
